In the supplement of paper PMC11061612:

Legend:
[1] = system: HCC1143 (Breast Carcinoma); assay: combination Emax (second highest fraction inhibited in the dose matrix, 72 h); higher = more inhibition; extreme values may be limits of the assay
Method in brief: (§1)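 Cell lines grown in DMEM/F12 or RPMI with 10% FBS were plated in 1536-well plates and held 24 hours at 37°C, 5% CO2 before 72 hours of exposure to two-drug dose matrices, with DMSO typically at 0.2%. CellTiter-Glo 2.0 luminescence gave viability, which was converted to inhibition. Vehicle wells were set to 0 and blank wells to 1. Combination Emax is the second-highest inhibition in the matrix, and Bliss excess is the observed combination effect minus the expected EA + EB − EA·EB, where EA and EB are the single-agent effects.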

[2] = system: PA-TU-8902 (Pancreatic Carcinoma); assay: as above
Method in brief: as §1

[3] = system: EFM-192A (Breast Carcinoma); assay: as above
Method in brief: as §1

[4] = system: 647-V (Bladder Carcinoma); assay: as above
Method in brief: as §1

[5] = system: SK-LMS-1 (Other Solid Carcinomas); assay: as above
Method in brief: as §1

[6] = system: YT (Other Blood Carcinomas); assay: as above
Method in brief: as §1

[7] = system: HCC1143 (Breast Carcinoma); assay: Bliss excess, mean over the matrix (fraction); higher = more synergy
Method in brief: as §1

MSTO-211H (Mesothelioma) = assay: as above
Method in brief: as §1

[8] = system: BICR78 (Oral Cavity Carcinoma); assay: as above
Method in brief: as §1

[9] = system: SNG-M (Endometrial Carcinoma); assay: as above
Method in brief: as §1

[10] = system: TYK-nu (Ovarian Carcinoma); assay: as above
Method in brief: as §1

[11] = system: SKN-3 (Head and Neck Carcinoma); assay: as above
Method in brief: as §1

[12] = system: SW48 (Colorectal Carcinoma); assay: as above
Method in brief: as §1

[13] = system: SNU-61 (Colorectal Carcinoma); assay: as above
Method in brief: as §1

[14] = system: P31-FUJ (Acute Myeloid Leukemia); assay: as above
Method in brief: as §1

[15] = system: KG-1 (Acute Myeloid Leukemia); assay: as above
Method in brief: as §1

[16] = system: CAL-39 (Other Solid Carcinomas); assay: as above
Method in brief: as §1

[17] = system: WSU-DLCL2 (B-Cell Non-Hodgkin's Lymphoma); assay: as above
Method in brief: as §1

HuO9 (Osteosarcoma) = assay: as above
Method in brief: as §1

[18] = system: HLE (Hepatocellular Carcinoma); assay: as above
Method in brief: as §1
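For Bliss excess, mean over the matrix in this document: after 72 h of two-drug dosing.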

Structure (SMILES)	combination Emax [1]	combination Emax [2]	combination Emax [3]	combination Emax [4]	combination Emax [5]	combination Emax [6]	Bliss excess [7]	Bliss excess (MSTO-211H (Mesothelioma))	Bliss excess [8]	Bliss excess [9]	Bliss excess [10]	Bliss excess [11]	Bliss excess [12]	Bliss excess [13]	Bliss excess [14]	Bliss excess [15]	Bliss excess [16]	Bliss excess [17]	Bliss excess (HuO9 (Osteosarcoma))	Bliss excess [18]
Cc1c2c(nn1C)CSCc1cc(n(C)n1)CSc1cc(c3ccccc3c1)OCCCc1c(C(=O)O)n(C)c3c-2c(Cl)ccc13 [AZD5991] + C[C@@H](Nc1cc(F)cc(F)c1)c1cc(C(=O)N(C)C)cc2c(=O)cc(N3CCOCC3)oc12 [AZD8186] (first compound max 1 µM, 7x7, partner max 3 µM)	0.342	0.173	0.703	0.802	0.453	1	0.0441	-0.0019	-0.034	-0.0242	-0.0118	-0.0606	-0.0271	-0.0277	-0.041	0.0031	0.0117	-0.058	0.0127	0.0254
Cc1c2c(nn1C)CSCc1cc(n(C)n1)CSc1cc(c3ccccc3c1)OCCCc1c(C(=O)O)n(C)c3c-2c(Cl)ccc13 [AZD5991] + Cc1cc2ncnn2cc1Nc1ncc2c(n1)n(C1CCOCC1)c(=O)n2C [AZD7648] (first compound max 1 µM, 7x7, partner max 10 µM)	0.267	0.321	0.692	0.719	0.344	1	0.0124	-0.025	-0.0172	0.0071	-0.0539	-0.032	-0.036	-0.0446	0.0055	-0.0136	-0.0466	-0.0422	-0.018	-0.0253
Cc1c2c(nn1C)CSCc1cc(n(C)n1)CSc1cc(c3ccccc3c1)OCCCc1c(C(=O)O)n(C)c3c-2c(Cl)ccc13 [AZD5991] + Cn1cnc2c(F)c(Nc3ccc(Br)cc3Cl)c(C(=O)NOCCO)cc21 [Selumetinib] (first compound max 1 µM, 7x7, partner max 3 µM)	0.383	0.293	0.511	0.91	0.22	1	0.0552	-0.006	-0.0106	-0.0258	-0.0052	0.0324	0.0102	-0.0079	0.0399	0.0316	0.02	-0.0123	-0.0386	-0.0459
Cc1cc2ncnn2cc1Nc1ncc2c(n1)n(C1CCOCC1)c(=O)n2C [AZD7648] + C=CCn1c(=O)c2cnc(Nc3ccc(N4CCN(C)CC4)cc3)nc2n1-c1cccc(C(C)(C)O)n1 [AZD1775] (first compound max 10 µM, partner max 1 µM)	0.603	0.348	0.455	0.52	0.572	0.89	-0.0183	0.067	0.0189	0.0527	-0.0394	-0.0033	-0.0702	-0.049	-0.0027	-0.0652	-0.0211	-0.0048	-0.0298	-0.0273
Cc1cc2ncnn2cc1Nc1ncc2c(n1)n(C1CCOCC1)c(=O)n2C [AZD7648] + CCN(CCO)CCCOc1ccc2c(Nc3cc(CC(=O)Nc4cccc(F)c4)[nH]n3)ncnc2c1 [AZD2811] (first compound max 10 µM, 7x7, partner max 1 µM)	0.403	0.309	0.345	0.262	0.409	0.624	-0.003	0.0509	-0.0135	0.0507	0.0625	-0.0037	-0.073	-0.0383	-0.017	0.0351	-0.0393	0.127	0.051	0.0271
Cc1cc2ncnn2cc1Nc1ncc2c(n1)n(C1CCOCC1)c(=O)n2C [AZD7648] + CN(C)CCCOc1ccc(-c2ccc3ncc4c(c3c2)n(C2CCOCC2)c(=O)n4C)cn1 [AZD0156] (first compound max 10 µM, 7x7, partner max 1 µM)	0.242	0.227	0.374	0.222	0.428	0.705	0.0031	0.0388	0.0054	0.0073	-0.0465	-0.0064	-0.0183	-0.0151	0.0381	-0.0155	-0.0104	0.0127	0.0522	-0.0274
Cc1cc2ncnn2cc1Nc1ncc2c(n1)n(C1CCOCC1)c(=O)n2C [AZD7648] + C[C@@H]1COCCN1C2=NC(=NC(=C2)C3(CC3)[S@](=N)(=O)C)C4=C5C=CNC5=NC=C4 [AZD6738] (first compound max 10 µM, 7x7, partner max 10 µM)	0.853	0.24	0.292	0.585	0.533	0.833	-0.0328	0.0403	-0.0018	-0.0217	-0.034	-0.0279	-0.0195	0.0199	0.0131	-0.0024	0.0081	-0.001	-0.0537	0.0049
Cc1cc2ncnn2cc1Nc1ncc2c(n1)n(C1CCOCC1)c(=O)n2C [AZD7648] + O=C(c1cc(Cc2n[nH]c(=O)c3ccccc23)ccc1F)N1CCN(C(=O)C2CC2)CC1 [Olaparib] (first compound max 10 µM, 7x7, partner max 10 µM)	0.148	0.112	0.278	0.219	0.281	0.575	-0.0401	-0.0143	-0.0056	-0.0471	-0.0819	-0.0199	-0.031	-0.0443	-0.0511	-0.0312	-0.0323	-0.0096	0.0105	-0.036
NC1(C(=O)N[C@@H](CCO)c2ccc(Cl)cc2)CCN(c2ncnc3[nH]ccc23)CC1 [Capivasertib] + CC(=O)c1c(C)c2cnc(Nc3ccc(N4CCNCC4)cn3)nc2n(C2CCCC2)c1=O [Palbociclib] (first compound max 10 µM, 7x7, partner max 10 µM)	0.498	0.409	0.432	0.277	0.433	0.68	0.0317	-0.0547	-0.0093	-0.0601	-0.0208	-0.0502	-0.0217	-0.0289	-0.0807	-0.0421	0.0167	0.0205	-0.0311	-0.002
NC1(C(=O)N[C@@H](CCO)c2ccc(Cl)cc2)CCN(c2ncnc3[nH]ccc23)CC1 [Capivasertib] + CC(C)n1c(=O)n(C)c2cnc3cc(F)c(-c4ccc(OCCCN5CCCCC5)nc4)cc3c21 [AZD1390] (first compound max 10 µM, 7x7, partner max 0.3 µM)	0.174	0.278	0.402	0.22	0.324	0.336	-0.0661	-0.0905	-0.0552	-0.0484	-0.116	-0.0849	-0.0345	-0.064	-0.169	-0.0386	-0.0731	0.0106	-0.0009	-0.0323
NC1(C(=O)N[C@@H](CCO)c2ccc(Cl)cc2)CCN(c2ncnc3[nH]ccc23)CC1 [Capivasertib] + CCN(CCO)CCCOc1ccc2c(Nc3cc(CC(=O)Nc4cccc(F)c4)[nH]n3)ncnc2c1 [AZD2811] (first compound max 10 µM, 7x7, partner max 1 µM)	0.287	0.348	0.449	0.309	0.457	0.456	0.0137	-0.0073	-0.0092	-0.012	-0.0351	-0.0524	0.0146	-0.0435	-0.0663	-0.0204	-0.051	0.0415	0.0135	0.0121
NC1(C(=O)N[C@@H](CCO)c2ccc(Cl)cc2)CCN(c2ncnc3[nH]ccc23)CC1 [Capivasertib] + COc1nnc2ccc(N3CCC(c4ccc(OCCN5CCN(C)C(=O)[C@H]5C)cc4)CC3)nn12 [AZD5153] (first compound max 10 µM, 7x7, partner max 1 µM)	0.325	0.326	0.504	0.502	0.609	0.792	-0.0035	0.0056	0.0135	0.0787	0.0114	0.0027	-0.0226	-0.01	0.0066	-0.0162	-0.0579	-0.0546	-0.0142	-0.0096
NC1(C(=O)N[C@@H](CCO)c2ccc(Cl)cc2)CCN(c2ncnc3[nH]ccc23)CC1 [Capivasertib] + C[C@@H]1COCCN1C2=NC(=NC(=C2)C3(CC3)[S@](=N)(=O)C)C4=C5C=CNC5=NC=C4 [AZD6738] (first compound max 10 µM, 7x7, partner max 10 µM)	0.725	0.544	0.581	0.76	0.566	0.838	-0.105	-0.0088	0.0163	-0.0984	-0.109	-0.0564	-0.0387	-0.0316	-0.145	-0.026	0.0019	-0.0088	-0.0535	-0.038
NC1(C(=O)N[C@@H](CCO)c2ccc(Cl)cc2)CCN(c2ncnc3[nH]ccc23)CC1 [Capivasertib] + Cn1cnc2c(F)c(Nc3ccc(Br)cc3Cl)c(C(=O)NOCCO)cc21 [Selumetinib] (first compound max 10 µM, 7x7, partner max 10 µM)	0.317	0.557	0.436	0.3	0.668	0.446	-0.0014	0.0663	-0.0016	0.0648	0.0219	-0.0759	-0.0453	0.025	0.0376	-0.0045	-0.019	-0.0006	-0.0116	0.0365
